Source: US6197575A, “Vascularized perfused microtissue/micro-organ arrays” (Massachusetts Institute of Technology, priority 1999, dated 2001)

Experiments:
[1] = system: P450 1A1; assay: EROD assay (7-ethoxyresorufin O-dealkylation) in perfused bioreactor chip of hepatocytes and endothelial cells; type: cell-based, rat
Method: Bioreactor constructs using an assay that measures the activity of one representative P450 isozyme, cytochrome P450 1A1, was evaluated. This enzyme is present in all mammalian species and is highly inducible by polycyclic aromatic hydrocarbons as well as other agents. 7-Ethoxyresorufin is a selective substrate of rat P450 1A1 which catalyzes its de-ethylation to the highly fluorescent resorufin. Subsequent to P450 1A1 catalyzed de-ethylation, resorufin can be exported from the cell or undergo phase II conjugation. There are two possible phase II conjugation products resulting from the enzyme catalyzed addition of sulfate or glucoronic acid to the 7-hydroxyl group of resorufin. Thus, from this assay one can quantitatively determine the activity of P450 1A1 and the phase II conjugation enzymes. […]
The 7-ethoxyresorufin O-dealkylation (EROD) assay involved dissolving the substrate into the chemically defined media (final concentration of 10-20 μM) and perfusing it through the tissue array. The effluent was collected in sequential fractions which then were analyzed by fluorescence detection for the presence of resorufin. Total conversion within each fraction was determined by incubating an aliquot from the fraction with enzymes that hydrolyze the phase II conjugates of resorufin back to the free alcohol. […]

[2] = system: cells; details: tethered to silicon substrates; cited from earlier work

Question: With Cc1ccc2cc3c(ccc4ccccc43)c3c2c1CC3 [3-methylcholanthrene] as the molecule, how does the “increase in absolute level of resorufin formation” value ([1]; bioreactor treated for final 24 hours in static culture, attomoles resorufin formed per minute per hepatocyte) read?
Answer: approximately five

Question: With O=c1cc(-c2ccccc2)oc2c1ccc1ccccc12 [naphthoflavone] as the molecule, how does the “enzyme activity (resorufin formation) in presence and after removal of inhibitor” value ([1]; 20 μM inhibitor with 10 μM ethoxyresorufin, t=240-385 min) read?
Answer: inhibited by the inclusion of a reversible inhibitor to the media and then recovered when the inhibitor was removed

Question: For “Tethered EGF: epidermal growth factor (EGF) tethered to silicon substrates”, which “biological activity after tethering” value [2] is on record?
Answer: retained full biological activity

Question: And the stimulation of cells [2]?
Answer: stimulate cells in a dose-dependent manner
